Compound	melting point [°C]
CC1(C)C=C(CC(=O)O)C(C)(C)CC1	50 to 54
CCOC(=O)c1ncc2[nH]c3ccc(N)cc3c2n1	256 to 258
CC(C)C(=O)Oc1cccc2c1C(=O)c1c(O)cccc1C2C(=O)C1CCCCC1 (stereo not drawn)	146
ClCCCCCOc1ccc(C2=C(c3ccc(OC4CCCCO4)cc3)CCCc3cc(OC4CCCCO4)ccc32)cc1 (stereo not drawn)	110 to 112
O=S(=O)(/C=C/c1ccccc1)Nc1ccc(F)cc1	83 to 85
Cc1ccc(S(=O)(=O)Oc2cccc(NC(=O)NS(=O)(=O)c3ccccc3)c2)cc1	162 to 170
Fc1ccc(Cn2c(NC3CCN(CCNc4ncc[nH]4)CC3)nc3ccccc32)cc1	226
COc1cc2c(cc1S(=O)(=O)c1cccs1)[C@@H](N1CCCC1=O)[C@H](O)C(C)(C)O2 (relative stereo)	135 to 136
CCCCCCc1cnc(-c2ccc(C#N)cc2)nc1	53.5 to 54.5
O=C(O)CCCCN1C(=O)c2cccc([N+](=O)[O-])c2C1=O	158 to 160
Fc1ccc(-c2ncn(C3CCNCC3)c2-c2ccnc(Oc3ccc(-c4ccccc4)cc3)n2)cc1	192 to 193
COC(=O)C1(O)CC(CO)=NN1c1ncccc1Cl (stereo not drawn)	111 to 113
COc1ccc(C(=O)NNC(=O)c2occ(-c3ccccc3)c2-c2ccccc2)cc1NC(=O)OC(C)(C)C	137 to 141
CCCc1nc2c(N)nc3ccccc3c2n1CCCC(=O)OCC	154 to 156
N#Cc1ccnc(C=Cc2ccccc2)n1	147 to 150
COC(=O)Nc1ccc(OC(=O)OC)cc1I	106
C=C1C(=O)NC(=O)N1c1ccccc1	168 to 170
COc1cc2c(cc1CCNC(=O)c1cc(OC)c(OC)c(OC)c1)CCC2	144 to 145
CCn1c(CCCO)nc(C(C)C)c1Sc1cc(Cl)cc(Cl)c1	73
CC(=O)CC(=O)CCCCCCCC(=O)CC(C)=O	73 to 74
CC(C)c1ccc(CCOc2ccnc3c(F)cccc23)cc1	56 to 60
COc1cccc(CNC(=O)c2nc3scc(CCOc4ccc(C(=O)O)cc4)c3c(=O)[nH]2)c1	237 to 241
COC(=N)N1CCC(c2nn(C)c3cc(F)ccc23)CC1	132 to 135
COC(=O)/C=C/n1cnc2c(OC)cc(OC)cc2c1=O	224 to 226
COc1ccccc1NC(=O)Nc1nc(Nc2ccc(-c3ccccc3)cc2)nc(N(CCC(=O)O)Cc2ccc(Cl)c(Cl)c2)n1	215 to 220

Compound	melting point [°C]
COC1(C(=O)Cc2ccc(-c3ccc(O)cc3)cc2)C=CC(Cl)=CC1N (stereo not drawn)	165 to 168
O=C1Nc2ccc(Br)cc2C(c2ccccc2F)=NC1O (stereo not drawn)	196 to 198
Cc1cc(C)nc(Oc2ccc(-c3ccn(CC4CC4)c(=O)c3C#N)c(F)c2)c1	137
Nc1nnc(SCCCCc2ccccc2)s1	111
O=C(Nc1ccc(C(=O)N2Cc3cccn3-c3ccccc32)cc1)c1cccc(Cl)c1Cl	230 to 240
C#CCOc1cc(C(=O)O)n(-c2ncc(Cl)cc2Cl)n1	151 to 157
OC(c1ccc(F)cc1)c1cc(Br)cc(Br)c1 (stereo not drawn)	92 to 93
COC1SC=C(C)NC1=O (stereo not drawn)	157 to 160
C#CC[C@H](c1nc2cc(Cl)ccc2c(=O)n1Nc1ccccc1)N(CCCN1C(=O)c2ccccc2C1=O)C(=O)c1cccc(Cl)c1F	130 to 132
Clc1ccccc1-c1nc(-c2ccccc2)c(-c2ccccc2)[nH]1	196 to 197
OC1(Cc2ccccc2)CCN(CCC#Cc2ccccc2)CC1	80 to 82
Cc1c(C=O)c2c(c(C)c1NC(=O)CC(C)(C)C)C(c1ccc(C(C)C)cc1)CS2 (stereo not drawn)	134 to 140
Nc1ccc(N2C(=O)CCCC2c2ccc(Cl)c(Cl)c2)cc1 (stereo not drawn)	177 to 178
CSC1C(=O)Nc2c(OCc3ccccc3)cccc21 (stereo not drawn)	127 to 129
CCn1nc(Cl)c(CS(=O)(=O)C2=NOC(C)(C)C2)c1Cl	105 to 107
CNC(=O)c1cnn(-c2ccccc2)c1Br	157 to 159
CCc1nnc(-c2ccc(F)c(F)c2Nc2ccc(I)cc2F)o1	97 to 98
CCOC(=O)C1=C(C)NC(c2c(F)cc(F)cc2F)=NC1c1ccc(F)cc1Cl (stereo not drawn)	184 to 186
O=C1Nc2ccc(Cl)cc2N2CCNCC12 (stereo not drawn)	300 to 303
CCCCc1nn(-c2cc(NC(=O)CC)ccc2C(F)(F)F)c(=O)n1Cc1ccc(-c2ccccc2S(=O)(=O)NC(=O)c2ccccc2Cl)cc1F	181 to 183
N#Cc1ccc(N2C(=O)NC3(CCCC3)C2=O)cc1C(F)(F)F	184 to 185
CCc1oc2ccccc2c1C(=O)c1ccc(OCCOS(=O)(=O)c2ccc(C)cc2)cc1	95 to 98
O=C(NCCCc1ccccc1)c1ccccc1NCc1ccncc1	117
CCC(=O)Nc1nc2c(s1)-c1nc(-c3ccccc3)ncc1CC2	274 to 275
CC(=O)Nc1nnc(C(F)(F)C(Cl)Cl)s1	182 to 184

Compound	melting point [°C]
CCOc1cc(=O)oc2cc(C)ccc12	142 to 143
O=c1[nH][nH]c(=O)n1CCCl	192 to 193
N#Cc1cc(Cl)ccc1Oc1cc(N2CCOCC2)c(F)cc1O	149 to 151
O=c1[nH]c2ccc(S(=O)(=O)Nc3ccc(Cl)cc3Cl)cc2c(=O)o1	215
CC(C)c1ccc(N(Cc2cnn(Cc3ccc(Cl)s3)c2)C(=O)C2CCCc3c(O)cccc32)cn1 (stereo not drawn)	98 to 101
N#CC(=NNc1c(Cl)cc(C(F)(F)F)cc1Cl)c1ccc(C#N)cc1	186 to 187
CN1CCN(CC(=O)Nc2ccc3c(c2)C(=O)c2cc(NC(=O)CN4CCN(C)CC4)ccc2C3=O)CC1	173
CC(C)c1onc(-c2c(Cl)cccc2Cl)c1COc1ccc(NCc2ccc(C(=O)O)cc2)c(C(F)(F)F)n1	259 to 260
CCOC(=O)c1cc2c3n(ccc-2n1)CC(CO)=N3	227 to 229
CCOC(=O)C1=C(C)NC(C)=C(C(=O)OCCN2CCN(C(c3ccc(C)cc3)c3ccc(C)cc3)CC2)C1c1cccc([N+](=O)[O-])c1 (stereo not drawn)	82 to 85
CC1(CCn2c(=O)oc3ccccc32)Cn2cc([N+](=O)[O-])nc2O1 (stereo not drawn)	193 to 195
c1ccc(Cc2c[nH]c(-c3ncc[nH]3)n2)cc1	138 to 140
Cn1c([N+](=O)[O-])cnc1C1=NOC2OCCCC12 (stereo not drawn)	140 to 142
N#C/C(=C\c1cc(O)c(O)c(I)c1)C(=O)NCc1ccccc1	220
CNC(=S)C1(c2ccncc2)CCCCC1=O (stereo not drawn)	182 to 183
N#Cc1ncn2c(C(F)(F)F)cc(-c3ccccc3Cl)nc12	180
CC(NC(=O)C(C)(Cc1ccccc1)NC(=O)OC(c1ccc(F)cc1)C(C)C)c1ccccc1 (stereo not drawn)	154
CN1Cc2c(-c3noc(CCl)n3)ncn2-c2cccc(Br)c2C1=O	242 to 244
O=C(NOCCO)c1ccc(F)c(F)c1Nc1ccccc1F	130
Cc1ccc(C(O)c2nc3c(cc2C)CCCCC3)cc1 (stereo not drawn)	143 to 145
O=C(Nc1ccc(-c2ncc(-c3ccc(NC(=O)C4CCCCCC4)cc3)[nH]2)cc1)c1cccnc1	326 to 328
CCOC(=O)C1CCN(c2nc(COc3ccc(CO)cc3OC)c(C)s2)CC1	84 to 85
COC(=O)c1cc(Oc2c(Cl)cc(C(F)(F)F)cc2Cl)n[nH]1	114 to 116
CS(=O)(=O)c1cc(C(F)(F)F)ccc1C(=O)O	156
CCC(O)(c1ccccc1)c1cc(C)ccc1C (stereo not drawn)	38 to 39

Compound	melting point [°C]
CCOc1ccc(S(=O)(=O)N(Cc2ccc(C(=O)OC)cc2)[C@@H](CC)c2ccccc2)cc1	102 to 104
CC1Cc2ccc(Cl)cc2C(c2ccc(N)cc2)=NN1C(=O)C(F)(F)F (stereo not drawn)	165 to 167
CC(C)NCCn1c(-c2ccc(O)cc2)cc2c1CCCC2	149 to 150
CN(C)S(=O)(=O)c1ccc2c(c1)S(=O)(=O)NC2=O	198 to 200
CCCCc1cn(Cc2ccc(-c3ccccc3C(=O)O)cc2)c2c(c1=O)CCCC2	260
COc1cc2c(cc1C)CCN=C2C1(c2ccsc2)CC1	116 to 118
COc1cc(C2C3=C(COC3=O)N(c3cc(OC)c(OC)c(OC)c3)c3cc4c(cc32)OCO4)cc(OC)c1OC (stereo not drawn)	> 260
CN(C)C=NS(=O)(=O)c1cc(CCNC(=O)C(F)(F)F)ccc1OCC(F)(F)F	130
COc1ccc2c(c1)c(C)cc(=O)n2-c1ccc(Cl)cc1	234 to 235
Cc1c(C)c2c(c(C)c1NC(=O)CC(C)(C)C)C(c1ccc(Br)cc1)C(C)(C)O2 (stereo not drawn)	201 to 202
Cc1cc(C)c(S(=O)(=O)NC(COc2ccnc3ccccc23)C(F)(F)F)c(C)c1 (stereo not drawn)	211 to 212
COC(=O)c1ccc(C(=O)Nc2nnc(-c3cc(Cl)cc(Cl)c3O)s2)nc1	301
CCCCC(=O)c1c(-c2ccc3cc(OCC(=O)O)ccc3c2)oc2ccc(Cl)cc12	158 to 160
CC(=O)NCC1CN(c2ccc(N3CCC(O)(C#N)C(C)(C)C3)c(F)c2)C(=O)O1 (stereo not drawn)	65 to 68
NC(=O)c1ccc(C(F)(F)F)cc1-c1cnccc1Oc1cccc(CCC(=O)N2CCN(Cc3ccc4c(c3)OCO4)CC2)c1	140 to 141
CCCc1nc(Sc2ccc(OC)cc2)c(CC(=O)O)n1Cc1cc2c(cc1Cl)OCO2	187
COCCN1CCC(O)(c2cccc(Cl)c2Cl)CC1	135 to 137
Cc1nc2c(O[C@@H]3c4ccccc4C[C@H]3O)cc(C(=O)O)cn2c1C (relative stereo)	229 to 231
O=C(Nc1ccc(S(=O)(=O)C[N+](=O)[O-])cc1)c1ccccc1	211 to 212
CC(C)(C)C1=NN(c2ccc(C(=O)O)cc2)C(c2cccc(Br)c2)C1 (stereo not drawn)	216
CCOC(=O)CC(NC(=O)c1ccccc1)C(=O)C(C)C (stereo not drawn)	44 to 46
O=c1ccsc2c3ccccc3n(CCN3CCOCC3)c12	136 to 137
Clc1ccc(-c2cccs2)nn1	155
